Laboratory results from ChEMBL document CHEMBL3885861, “Open TG-GATES”.

Organism: Rattus norvegicus
Assay: Open TG-GATES - Regimen: Daily Repeat
Type: toxicity, organism-based, Sprague-Dawley
Design: regimen Daily Repeat, gender Male, age 6 weeks
Conditions: in vivo, po, 15 mg/kg, […], route gavage, dose level Low; for KIDNEY_L / KIDNEY_R / KIDNEY_TOTAL: tissue Kidney; for LIVER: tissue Liver; for A/G / ALP / ALT / AST / BUN / CRE / Ca / Cl / DBIL / GLC / IP / K / LDH / Na / PL / RALB / TBIL / TC / TG / TP / gamma-GTP: tissue Plasma

With `Nc1nc(N)c2nc(-c3ccccc3)c(N)nc2n1` as the compound, how does the Lym (tissue Blood, time 28 day) read?
Its Lym is 78.6%.

And the MCH (tissue Blood, time 28 day)?
The MCH was 18.9 pg.

What about the MCHC (tissue Blood, time 28 day) of the same compound?
The MCHC was 33.6%.

And the MCV (tissue Blood, time 28 day)?
Its MCV is 56.3 fL.

What about the Mono (tissue Blood, time 28 day) of the same compound?
The Mono was 1.8%.

What about the Neu (tissue Blood, time 28 day) of the same compound?
The Neu was 17.6%.

And the PT (tissue Blood, time 28 day)?
The PT was 13.4 s.

And the Plat (tissue Blood, time 28 day)?
The Plat was 111.2 x10_4/uL.

What about the RBC (tissue Blood, time 28 day) of the same compound?
The RBC was 825 x10_4/ul.

And the Ret (tissue Blood, time 28 day)?
The Ret was 2.1%.

And the WBC (tissue Blood, time 28 day)?
Its WBC is 89.6 x10_2/uL.

What about the KIDNEY_L (time 7 day) of the same compound?
The KIDNEY_L was 1.2 g.

And the KIDNEY_R (time 7 day)?
Its KIDNEY_R is 1.1 g.

And the KIDNEY_TOTAL (time 7 day)?
The KIDNEY_TOTAL was 2.3 g.

What about the KIDNEY_L (time 14 day) of the same compound?
The KIDNEY_L was 1.3 g.

What about the KIDNEY_R (time 14 day) of the same compound?
Its KIDNEY_R is 1.2 g.

And the KIDNEY_TOTAL (time 14 day)?
Its KIDNEY_TOTAL is 2.5 g.

What about the KIDNEY_L (time 28 day) of the same compound?
Its KIDNEY_L is 1.4 g.

What about the KIDNEY_R (time 28 day) of the same compound?
Its KIDNEY_R is 1.4 g.

What about the KIDNEY_TOTAL (time 28 day) of the same compound?
Its KIDNEY_TOTAL is 2.8 g.

What about the LIVER (time 7 day) of the same compound?
Its LIVER is 13.1 g.

What about the LIVER (time 14 day) of the same compound?
The LIVER was 14.6 g.

What about the LIVER (time 28 day) of the same compound?
Its LIVER is 15.5 g.

What about the A/G (time 7 day) of the same compound?
Its A/G is 0.8.

What about the ALP (time 7 day) of the same compound?
The ALP was 1439.8 IU/L.

What about the ALT (time 7 day) of the same compound?
Its ALT is 39.8 IU/L.

What about the AST (time 7 day) of the same compound?
The AST was 62.6 IU/L.

What about the BUN (time 7 day) of the same compound?
The BUN was 14.8 mg/dL.

What about the CRE (time 7 day) of the same compound?
Its CRE is 0.2 mg/dL.

And the Ca (time 7 day)?
The Ca was 11 mg/dL.

And the Cl (time 7 day)?
The Cl was 104.6 meq/L.

What about the DBIL (time 7 day) of the same compound?
Its DBIL is 0.016 mg/dL.

What about the GLC (time 7 day) of the same compound?
The GLC was 185 mg/dL.

What about the IP (time 7 day) of the same compound?
The IP was 7.9 mg/dL.

What about the K (time 7 day) of the same compound?
The K was 4 meq/L.

And the LDH (time 7 day)?
The LDH was 60.4 IU/L.

What about the Na (time 7 day) of the same compound?
The Na was 143.4 meq/L.

And the PL (time 7 day)?
Its PL is 155.6 mg/dL.

What about the RALB (time 7 day) of the same compound?
Its RALB is 2.6 g/dL.

And the TBIL (time 7 day)?
The TBIL was 0.074 mg/dL.

What about the TC (time 7 day) of the same compound?
The TC was 75.2 mg/dL.

And the TG (time 7 day)?
The TG was 137 mg/dL.

What about the TP (time 7 day) of the same compound?
Its TP is 5.7 g/dL.

And the gamma-GTP (time 7 day)?
Its gamma-GTP is 1.2 IU/L.

And the A/G (time 14 day)?
The A/G was 0.9.

And the ALP (time 14 day)?
The ALP was 1252.8 IU/L.

And the ALT (time 14 day)?
The ALT was 40.2 IU/L.

And the AST (time 14 day)?
The AST was 62.6 IU/L.

And the BUN (time 14 day)?
The BUN was 16.2 mg/dL.

And the CRE (time 14 day)?
The CRE was 0.2 mg/dL.

And the Ca (time 14 day)?
The Ca was 10.4 mg/dL.

What about the Cl (time 14 day) of the same compound?
Its Cl is 105 meq/L.

And the DBIL (time 14 day)?
Its DBIL is 0.012 mg/dL.

And the GLC (time 14 day)?
The GLC was 180.2 mg/dL.

And the IP (time 14 day)?
The IP was 7.5 mg/dL.

And the K (time 14 day)?
The K was 3.8 meq/L.

And the LDH (time 14 day)?
The LDH was 58 IU/L.

What about the Na (time 14 day) of the same compound?
The Na was 143.4 meq/L.

And the PL (time 14 day)?
The PL was 141.6 mg/dL.

And the RALB (time 14 day)?
The RALB was 2.7 g/dL.

And the TBIL (time 14 day)?
The TBIL was 0.068 mg/dL.

And the TC (time 14 day)?
The TC was 67.4 mg/dL.

And the TG (time 14 day)?
Its TG is 111.6 mg/dL.

And the TP (time 14 day)?
Its TP is 5.8 g/dL.

And the gamma-GTP (time 14 day)?
The gamma-GTP was 1 IU/L.

What about the A/G (time 28 day) of the same compound?
The A/G was 0.8.

And the ALP (time 28 day)?
The ALP was 1186.2 IU/L.

And the ALT (time 28 day)?
Its ALT is 35.6 IU/L.

What about the AST (time 28 day) of the same compound?
The AST was 63.4 IU/L.

And the BUN (time 28 day)?
The BUN was 16.2 mg/dL.

And the CRE (time 28 day)?
The CRE was 0.3 mg/dL.

What about the Ca (time 28 day) of the same compound?
The Ca was 10.7 mg/dL.

What about the Cl (time 28 day) of the same compound?
The Cl was 104.6 meq/L.

What about the DBIL (time 28 day) of the same compound?
The DBIL was 0.01 mg/dL.

And the GLC (time 28 day)?
The GLC was 187.6 mg/dL.

And the IP (time 28 day)?
Its IP is 6.6 mg/dL.

And the K (time 28 day)?
Its K is 3.9 meq/L.

And the LDH (time 28 day)?
Its LDH is 54.4 IU/L.

What about the Na (time 28 day) of the same compound?
Its Na is 143 meq/L.

And the PL (time 28 day)?
Its PL is 140.4 mg/dL.

And the RALB (time 28 day)?
Its RALB is 2.7 g/dL.

What about the TBIL (time 28 day) of the same compound?
Its TBIL is 0.06 mg/dL.

What about the TC (time 28 day) of the same compound?
The TC was 69.6 mg/dL.

What about the TG (time 28 day) of the same compound?
The TG was 123 mg/dL.

And the TP (time 28 day)?
Its TP is 6 g/dL.

What about the gamma-GTP (time 28 day) of the same compound?
Its gamma-GTP is 1 IU/L.
